Reference: patent US7745431B2, “Pharmaceutical composition of 1-(3,4-dimethoxyphenyl)-4-methyl-5-ethyl-7-methoxy-8-hydroxy-5H-2,3-benzodiazepine and uses thereof” (priority 2002, dated 2010)
Where two headings read alike, the source gives them in different places.

Experiments:
LTB4 receptor = target: T1, LTB4 receptor (Cavia porcellus, UniProt H0VYV8); experiment: Inhibition of [3H]LTB4 binding, guinea pig spleen membrane assay
T1 construct: 1.0 mg/mL of the Guinea pig spleen membrane preparation; from tissue; host or cells: guinea pig spleen membranes
T1 sequence (H0VYV8 1-348): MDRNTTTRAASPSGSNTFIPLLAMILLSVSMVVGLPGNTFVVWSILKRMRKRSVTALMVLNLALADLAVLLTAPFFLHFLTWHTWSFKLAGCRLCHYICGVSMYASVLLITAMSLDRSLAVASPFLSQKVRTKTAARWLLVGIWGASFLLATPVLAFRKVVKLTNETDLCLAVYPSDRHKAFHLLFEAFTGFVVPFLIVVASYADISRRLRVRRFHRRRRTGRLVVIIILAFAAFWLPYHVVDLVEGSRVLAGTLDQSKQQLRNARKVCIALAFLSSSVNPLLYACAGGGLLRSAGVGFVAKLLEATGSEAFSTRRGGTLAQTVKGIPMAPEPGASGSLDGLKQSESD
Description: The ability of 1-(3,4-dimethoxyphenyl)-4-methyl-5-ethyl-7-methoxy-8-hydroxy-5H-2,3-benzodiazepine to inhibit [^3H]LTB4 binding to the LTB4 receptor was determined as follows using the guinea pig spleen membrane assay of Cheng et al., J. Pharmacol. Exp. Ther., 236(1), 126-132, 1986, the entire disclosure of which is incorporated herein by reference.
Reactions were carried out in a phosphate buffer (pH 7.4) containing NaCl, MgCl2, EDTA, and bacitracin. The reaction volume of 150 μL containing 1.0 mg/mL of the Guinea pig spleen membrane preparation and 1 nM [^3H]LTB4, with or without a candidate inhibitor, was incubated at 0-4° C. for 2 hours. Candidate inhibitors included the compounds listed in Table 1 and unlabeled LTB4 as a control. The reaction was terminated by rapid vacuum filtration onto glass fiber filters. The filter was washed with cold buffer, dried and placed in a scintillation vial. Radioactivity trapped onto the filters was determined and compared to control values in order to ascertain any interactions of the test compound with the LTB4 binding site.

TXA2 receptor = target: T2, TXA2 receptor (Homo sapiens, UniProt P21731); experiment: TXA2 binding assay, [3H]SQ 29,548, human platelet-based; conditions: for inhibition at 10 µM: inhibition of [3H]SQ 29,548 binding, human platelets
T2 construct: determined via the human platelet-based assay of Hedberg et al; from tissue; host or cells: human platelets
T2 sequence (P21731 1-343): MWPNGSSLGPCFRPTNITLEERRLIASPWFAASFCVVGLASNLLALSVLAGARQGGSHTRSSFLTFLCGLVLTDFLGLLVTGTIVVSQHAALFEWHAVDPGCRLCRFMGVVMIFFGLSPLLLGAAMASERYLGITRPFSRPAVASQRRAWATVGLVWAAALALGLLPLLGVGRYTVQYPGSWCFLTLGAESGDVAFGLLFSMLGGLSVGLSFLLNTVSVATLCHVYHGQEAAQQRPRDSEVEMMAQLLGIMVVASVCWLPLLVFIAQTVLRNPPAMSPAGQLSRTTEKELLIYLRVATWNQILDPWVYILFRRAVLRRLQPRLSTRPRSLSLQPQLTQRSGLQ
Description: The ability of 1-(3,4-dimethoxyphenyl)-4-methyl-5-ethyl-7-methoxy-8-hydroxy-5H-2,3-benzodiazepine to inhibit the binding of [^3H]SQ 29,548 (30-60 Ci/mmol) was determined via the human platelet-based assay of Hedberg et al., “Characterization of [^3H]SQ 29,548 as a High Affinity Radioligand Binding to Thromboxane A2—Receptors in Human Platelets.”, J. Pharmacol. Exp. Ther. 245: 786-792 (1988), with modifications. TXA2 is a very unstable molecule, thus a surrogate ligand of known affinity for the TXA2 receptor is required as a standard for determination of binding affinity of new potential TXA2 ligands. [^3H]SQ 29,548 is a ligand with known binding affinity for the TXA2 receptor. [^3H]SQ 29,548 has been employed as a TXA2 ligand in several published studies, is accepted as a TXA2 binding standard, and is thus useful as a standard in assessing the binding affinity of new compounds to the TXA2 receptor. See also, Armstrong, R. A., Jones, R. L., et al. “Ligand Binding to Thromboxane Receptors on Human Platelets: Correlation with Biological Activity.” Brit. Jrnl. Pharmac. 79:953-964 (1983), the entire disclosures of which are incorporated herein by reference.
Reactions were carried out in 25 mM TRIS-HCl (pH 7.4) containing 138 mM NaCl, 5 mM KCl, 5 mM MgCl2, 5.5 mM dextrose, and 2 mM EDTA at 25° C. for 60 minutes. […] The reaction was terminated by rapid vacuum filtration onto glass fiber filters. Radioactivity trapped onto the filters was determined and compared to control values in order to ascertain any interactions of test compound with the thromboxane A2 binding site.

adenosine receptor = experiment: Adenosine binding assay, [3H]-NECA, bovine striatal membrane
Description: The ability of 1-(3,4-dimethoxyphenyl)-4-methyl-5-ethyl-7-methoxy-8-hydroxy-5H-2,3-benzodiazepine to inhibit the binding of [^3H]5′-N-ethylcarboxamidoadenosine (NECA) (15-30 Ci/mmol) was determined via the bovine striatal membrane assay of Bruns et al., “Characterization of the A2 Adenosine Receptor Labeled by [^3H]-NECA in Rat Striatal Membrane”, Pharmacology, 29: 331-346 (1986), with modifications. See also, Weir et al. “Inhibition of N6-[^3H]CHA Binding by Carbamazepine” Epilepsia, 31(5), 503-512 (1990) with modifications; and Holtzman et al., “Role of Adenosine Receptors in Caffeine Tolerance,” J. Pharmacol. & Exp. Ther., 256(1), 62-67 (1990).
Reactions were carried out in 50 mM TRIS-HCl (pH 7.7) at 25° C. for 60 minutes. The reaction was terminated by rapid vacuum filtration onto glass fiber filters. Radioactivity trapped onto the filters was determined and compared to control values in order to ascertain any interactions of test compound with the adenosine binding site.

mice [1] = conditions: cited from earlier work
mice [2] = conditions: cited from earlier work; remark: listed apart in the source
rats = conditions: cited from earlier work
Male Swiss mice = experiment: Mouse maximal electroshock test; assay type: in vivo; conditions: for Duration of tonic seizure Mean ± SEM: i.p., about 30 min before electroshock, mice; for anticonvulsant activity: vs. vehicle
Description: In this model of tonic-clonic seizure activity, seizures were produced by application of an AC current via corneal electrodes. The maximal electroshock model is commonly employed to assay anticonvulsant activity. See, Swinyard et al., J. Pharmacol. Exp. Therap., 1952, 106, 319-330; the entire disclosure of which is incorporated herein by reference.
Each animal was dosed with one of:
(1) diazepam, 20 mg/kg dissolved in normal saline as a reference standard;
(2) 1-(3,4-dimethoxyphenyl)-4-methyl-5-ethyl-7-methoxy-8-hydroxy-5H-2,3-benzodiazepine at a dose of 15, 30, 45 or 60 mg/kg; dissolved in 15% DMSO, 35% PEG and 50% deionized water (vehicle); or
(3) vehicle comprising 15% DMSO, 35% PEG and 50% deionized water.
The concentrations of each of the dosed substances were normalized such that the volume of each dose was 10 mL/kg.
Approximately thirty minutes following administration of the above dose, full tonic-clonic seizures were induced in the animals by applying an AC current (50 Hz, 50 mA, 0.2 seconds) using an ECT unit 7800 (Ugo Basile, Comerio, Italy) through corneal electrodes. The appearance and duration of the induced seizures, as characterized by a tonic extension of hindlimbs past 90° were recorded. The seizure data are reproduced in Table 4 showing the seizure data as a mean with a standard error of the mean.

peripheral BZ receptors = peripheral BZ receptors (Homo sapiens, UniProt P30536); conditions: cited from earlier work
Chain of peripheral BZ receptors (P30536 whole entry): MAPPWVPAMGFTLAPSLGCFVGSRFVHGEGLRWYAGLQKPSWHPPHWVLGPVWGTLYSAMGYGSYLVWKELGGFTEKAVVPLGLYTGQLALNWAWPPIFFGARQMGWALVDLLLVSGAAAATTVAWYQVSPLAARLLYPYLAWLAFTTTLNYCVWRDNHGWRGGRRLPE

central BZ receptors = conditions: cited from earlier work

Row | Compound | inhibition at 10 µM (TXA2 receptor) | Adenosine non-selective @ 10 μM (inhibition of [3H]-NECA binding) (adenosine receptor) | inhibition at 10 µM (LTB4 receptor) | inhibition of aggression (mice [1]) | inhibition of muricide (rats) | further results
1 | CCC1C(C)=NN=C(c2ccc(OC)c(O)c2)c2cc(OC)c(O)cc21 (stereo not drawn) [Compound 6, 1-(3-hydroxy-4-methoxyphenyl)-4-methyl-5-ethyl-7-hydroxy-8-methoxy-5H-2,3-benzodiazepine] | 45.7% | 27.52% |  |  |  | LTB4 % inhibition @ 10 μM (LTB4 receptor): inactive
2 | CCC1C(C)=NN=C(c2ccc(O)c(OC)c2)c2cc(OC)c(OC)cc21 (stereo not drawn) [Compound 3, 1-(3-methoxy-4-hydroxyphenyl)-4-methyl-5-ethyl-7,8-dimethoxy-5H-2,3-benzodiazepine] | 1.98% | inactive | 49.9% | 0% | 0% | narcosis-potentiating activity (mice [2]): demonstrate narcosis-potentiating activity
3 | CCC1C(C)=NN=C(c2ccc(O)c(OC)c2)c2cc(OC)c(O)cc21 (stereo not drawn) [Compound 5, 1-(3-methoxy-4-hydroxyphenyl)-4-methyl-5-ethyl-7-hydroxy-8-methoxy-5H-2,3-benzodiazepine] | 44% | 22.40% |  | 28.6% | 20% | LTB4 % inhibition @ 10 μM (LTB4 receptor): inactive
4 | CCC1C(C)=NN=C(c2ccc(OC)c(OC)c2)c2cc(O)c(OC)cc21 (racemic) [Compound 2, 1-(3,4-dimethoxyphenyl)-4-methyl-5-ethyl-7-methoxy-8-hydroxy-5H-2,3-benzodiazepine] | 48.3% | 61.50% | 36% |  |  | LTB4 % inhibition @ 10 μM (LTB4 receptor; 10 µM): 35.96%; Duration of tonic seizure Mean ± SEM (Male Swiss mice; 15 mg/kg): 9.0 ± 2.5 s; Duration of tonic seizure Mean ± SEM (Male Swiss mice; 30 mg/kg): 5.5 ± 1.1 s; Duration of tonic seizure Mean ± SEM (Male Swiss mice; 45 mg/kg): 6.5 ± 1.7 s; anticonvulsant activity (Male Swiss mice; 60 mg dose): comparable anticonvulsant activity, but fell short of statistical significance; Duration of tonic seizure Mean ± SEM (Male Swiss mice; 60 mg/kg): 5.7 ± 1.8 s; anticonvulsant activity (Male Swiss mice; 30 and 45 mg/kg doses): statistically significant anticonvulsant activity
5 | Pinane-thromboxane |  |  |  |  |  | Ki (TXA2 receptor; competitor in the [3H]SQ 29,548 binding assay): 149 nM
6 | CN1C(=O)CN=C(c2ccccc2)c2cc(Cl)ccc21 [Diazepam, diazepam] |  |  |  |  |  | Duration of tonic seizure Mean ± SEM (Male Swiss mice; 20 mg/kg): 1.8 ± 0.7 s
7 | CCC1C(C)=NN=C(c2ccc(OC)c(O)c2)c2cc(OC)c(OC)cc21 (stereo not drawn) [Compound 4, 1-(3-hydroxy-4-methoxyphenyl)-4-methyl-5-ethyl-7,8-dimethoxy-5H-2,3-benzodiazepine] | 25.9% | 4.26% | 63.9% |  |  | 
8 | CCC1C(C)=NN=C(c2ccc(OC)c(OC)c2)c2cc(OC)c(OC)cc21 (stereo not drawn) [tofisopam] |  |  |  |  |  | binding to peripheral BZ receptors (peripheral BZ receptors): binds only weakly; interaction with central BZ receptors (central BZ receptors): does not interact
9 | CCC1C(C)=NN=C(c2ccc(OC)c(OC)c2)c2cc(OC)c(O)cc21 (stereo not drawn) [Compound 1, 1-(3,4-dimethoxyphenyl)-4-methyl-5-ethyl-7-hydroxy-8-methoxy-5H-2,3-benzodiazepine] | 42.7% | 6.73% | 20.4% | 0% | 20% | 
